Data reported in article PMC5303003 (Bioorganic & medicinal chemistry, 2017).
Read-outs that look alike come from different tables or passages of the source.

Experiments:
[1] = molecular target: T1, σ1 receptor (Cavia porcellus, UniProt Q60492); conditions: read-out: Ki-σ1 of racemic compounds, previously reported; cited from earlier work
[2] = tested on: σ1 receptor; conditions: cited from earlier work; for Ki: read-out: Ki-σ1
[3] = tested on: σ1 receptor; experiment: MicroPET blocking study with σ1 ligand pretreatment in nonhuman primate; type: in vivo, cynomolgus macaque; conditions: 1.0 mg/kg i.v. 5 min prior to tracer injection, NHP, versus baseline
[4] = molecular target: σ2 receptor; conditions: read-out: Ki-σ2; cited from earlier work
[5] = molecular target: T1, σ1 receptor; experiment: σ1 receptor competitive binding assay; conditions: Ki σ1, (+)-isomer, guinea pig brain membranes, mean ± SEM
[6] = molecular target: vesicular acetylcholine transporter (VAChT); conditions: cited from earlier work
[7] = molecular target: emopamil binding protein (EBP); conditions: read-out: Ki for emopamil binding protein (EBP); cited from earlier work

T1 sequence (Q60492 whole entry): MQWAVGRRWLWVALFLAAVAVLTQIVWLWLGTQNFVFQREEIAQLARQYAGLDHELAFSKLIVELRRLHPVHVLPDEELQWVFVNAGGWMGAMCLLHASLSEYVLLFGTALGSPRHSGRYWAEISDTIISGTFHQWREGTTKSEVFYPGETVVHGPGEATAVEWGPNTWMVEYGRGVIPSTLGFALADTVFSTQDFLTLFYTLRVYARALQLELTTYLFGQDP

In the case of `O=C(c1ccc(F)cc1)C1CCN(C2CCN(Cc3ccc(F)cc3)CC2O)CC1` (racemic) [14a], the Ki [1] is listed as 0.48 nM.
In the case of `COc1ccc(CCN2CCN(CCCc3ccccc3)CC2)cc1O[11CH3]` [[^11C]SA4503, 1-(4-methoxy-3-(methoxy-^11C)phenethyl-^11C)-4-(3-phenyl-propyl)piperazine], the “selectivity for σ1 over VAChT” value [2] is listed as 11 fold and the “selectivity for σ1 over σ2 receptor” value [2] is listed as 55 fold.
In the case of `O=C(Cc1ccccc1F)NC1CCC(Cc2ccccc2)CC1` (centres unmarked) [Yun122, N-(4-benzylcyclohexyl)-2-(2-fluorophenyl)acetamide], the “effect of pretreatment on brain uptake of (−)-[18F]TZ3108” value [3] is listed as “significantly reduced”, the Ki [2] is listed as 3.6 nM and the Ki [4] is listed as 667 nM.
Work on `O=C(c1ccc(F)cc1)C1CCN(C2CCN(Cc3ccc(F)cc3)CC2O)CC1` (single isomer, unassigned; (+)) [(+)-14a] yielded a Ki [5] of 0.14 ± 0.02 nM.
In the case of `O=c1sc2cc(CCCF)ccc2n1CCN1CCCCCC1` [[^18F]FTC-146, ^18F-6-(3-fluoropropyl)-3-(2-(azepan-1 yl)ethyl)benzo-[d]thiazol-2(3H)-one], the Ki [2] is given as 0.0025 nM and the Ki ([6]; read-out: Ki-VAChT) is given as 450 nM.
For `COc1ccc(CCN2CCN(CCCc3ccccc3)CC2)cc1OC` [SA4503], the Ki [7] is given as 1.7 nM and the Ki ([6]; read-out: Ki for VAChT) is given as 50 nM.
